From patent publication US12245623B2, “Olive oil enriched with oleanolic acid, process for its preparation and use thereof” (CONSEJO SUPERIOR DE INVESTIGACIONES CIENTÍFICAS (CSIC), priority 2018, dated 2025)

Experiments:
[1] = Fasting plasma OA levels in the PREDIABOLE Study (GC-MS); format: in vivo, human; details: both study groups
Source text: At baseline and every six months afterwards, fasting blood samples were taken and analyzed for the serum glucose, insulin and HbA1c levels, as well as the lipid profile (triglycerides, total cholesterol, HDL-c and LDL-c). At each annual visit since the recruitment, participants were submitted to an OGTT. All these analytical determinations were made in the Laboratory of Analysis and Clinical Biochemistry of the ‘Virgen del Rocio’ University Hospital of Seville. In addition, aliquots of all the blood samples were sent to Instituto de la Grasa-CSIC to determine the plasma OA content. Laboratory technicians of both institutions were also blinded to the intervention groups.
Adherence to the dietary intervention has been assessed through two indirect methods: the self-reported compliance Haynes-Sackett (Rodriguez-Chamorro M A et al. Review of therapeutic compliance measurement tests used in clinical practice. Atencion Primaria 2008, 40, 413-417) test and the delivering of the empty bottles presumably consumed. In addition, the OA plasma levels have been measured, as objective biomarker of compliance, in a random sample of the PREDIABOLE biobank (25 aliquots per study group, corresponding to 0, 12, 18 and 30 months of follow-up). […]

[2] = Adverse effects in the PREDIABOLE Study (quarterly questioning and retrospective review of electronic medical records); format: in vivo, human; details: indicated daily dose (55 mL oil, 36 mg OA/day), up to 30 months, humans
Source text: In each quarterly visit during the development of the trial, participants were questioned about the appearance of gastrointestinal disarrays or other kind of discomfort. On the other hand, a family physician not belonging to the study staff, and therefore being unaware of the allocation of the participants to the study groups, carried out a retrospective study using the electronic medical records.
They explored for each participant the period comprised between the inclusion in the trial up to two years after its completion, and focused on analytical values of serum creatinine levels (marker of renal function) and alanine and aspartate aminotransferase enzymes (as markers of hepatic alteration). Normal creatinine levels are established in 61.9 to 114.9 μM for men and 53 to 97.2 μM for women. A serum creatinine level 1.5-folds higher than the normal value (≈150 μM) was adopted as criteria of kidney function alteration.
Since micro and macrovascular disorders are frequently associated to pathological complications of insulin resistance and diabetes, the electronic medical records were also explored for cerebral (transient ischemic stroke and ictus), cardiac (ischemic heart disease, chronic ischemia and effort angina) and peripheral (peripheral arterial disease) vascular diseases. In addition, any other significant adverse event suffered by participants were also took in consideration. […]

[3] = cited from earlier work
[4] = previous study, Rada et al. 2015; cited from earlier work

CC1(C)CC[C@]2(C(=O)O)CC[C@]3(C)C(=CC[C@@H]4[C@@]5(C)CC[C@H](O)C(C)(C)[C@@H]5CC[C@]43C)[C@@H]2C1 [OA, 3b-hydroxy-olean-12-en-28-oic acid]
fasting OA plasma concentration, average value ([1]; at the onset of the study): ca. 160 ng/mL
concentration at 30 months ([1]; human, in vivo, after 30 months of follow-up): ~300 ng/mL
safety of long-term administration [2]: safe for humans
solubility in aqueous media [3]: practically insoluble
solubility in lipophilic matrices [3]: partially soluble
mean residence time of OA in human blood after its ingestion [4]: 8.9 h
